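Dose response: 5 concentrations. Exposure: 48 h. Format: 96-well plates. Endpoint: linear interpolation; highest concentration if not reached. GI50 is the concentration that inhibits growth by half.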 Activity calls are given as the source filed them. Rule as the data show it: active = GI50 up to about 1.1 µM and inactive = higher. Where only a bound is given, the exact number is not on record here.

Some test systems named below: MDA-MB-435; HT-29; SK-MEL-28; A498; NCI-H522; RPMI-8226; SNB-19; CCRF-CEM; T47D; COLO 205; K562; MOLT-4; SF-295; CAKI-1; OVCAR-4; PC-3; SNB-75; SR.
Holding throughout (assay): growth of human tumour cells (NCI), 48 h

On to `CCCCCc1cccc(=O)o1`, for which the GI50 was > 100 µM (inactive) in the assay with MDA-MB-435; > 100 µM (inactive) with HT-29; > 100 µM (inactive) with SK-MEL-28; 57.9 µM (inactive) in the assay with A498; > 100 µM (inactive) in the assay with NCI-H522; > 100 µM (inactive) in the assay with RPMI-8226. The GI50 in the assay with SNB-19, in the assay on CCRF-CEM, with T47D, with COLO 205, in the assay with K562 and with MOLT-4 was > 100 µM (inactive) each time. Further, the GI50 in the assay with SF-295, with CAKI-1, in the assay on OVCAR-4 and with PC-3 was > 100 µM (inactive) throughout.

With `COC(CN(C(C)=O)C1CCC2(SCCS2)c2[nH]c3ccccc3c21)OC` (stereo not drawn), the GI50 in the assay on SNB-75 was > 100 µM (inactive); with MDA-MB-435, > 100 µM (inactive); with HT-29, > 100 µM (inactive); in the assay on SK-MEL-28 it was > 100 µM (inactive); with SR, 57.9 µM (inactive); with A498, > 100 µM (inactive). For the same compound, the GI50 in the assay with NCI-H522, in the assay with RPMI-8226, in the assay on SNB-19, with CCRF-CEM, in the assay with COLO 205 and with K562 was > 100 µM (inactive) in each case. Further, the GI50 in the assay with MOLT-4 was 60.8 µM (inactive); in the assay with SF-295, 0.207 µM (active); in the assay with CAKI-1 it was > 100 µM (inactive); with OVCAR-4, 62.7 µM (inactive); in the assay on PC-3, > 100 µM (inactive).

For `CN(CCCCCl)P(=O)(OCC1=CC(=O)c2ccccc2C1=O)OC[C@H]1O[C@@H](n2cc(F)c(=O)[nH]c2=O)C[C@@H]1O` (stereo partly drawn), the GI50 in the assay on SNB-75 is < 0.0176 µM (active); with MDA-MB-435, 0.684 µM (active); in the assay with SK-MEL-28, 4.11 µM (inactive); in the assay on NCI-H522 it was 0.239 µM (active); in the assay on CCRF-CEM, < 0.01 µM (active); in the assay on K562, 1.5 µM (inactive). For the same compound, the GI50 with SF-295 was < 0.0175 µM (active); in the assay on CAKI-1, < 0.0115 µM (active); in the assay with OVCAR-4 it was 0.681 µM (active); in the assay on PC-3, 0.165 µM (active).

Regarding `COP(=O)(OC)[C@H](O)[C@H]1C[C@@H]1c1ccccc1`, the GI50 in the assay with SNB-75, with MDA-MB-435, in the assay on HT-29, in the assay with SK-MEL-28, in the assay on A498 and in the assay on NCI-H522 was > 100 µM (inactive) in each case. Further, the GI50 in the assay with RPMI-8226, in the assay with SNB-19, in the assay with T47D, in the assay with COLO 205, in the assay with K562 and with MOLT-4 was > 100 µM (inactive) in each case. Besides, the GI50 in the assay on SF-295, in the assay on CAKI-1, in the assay on OVCAR-4 and in the assay on PC-3 was > 100 µM (inactive) in each case.

`O=C(N/N=C/C=C/c1ccc([N+](=O)[O-])o1)c1ccc(Br)s1`: the GI50 was > 100 µM (inactive) in the assay with SNB-75; 25.4 µM (inactive) with MDA-MB-435; 17 µM (inactive) in the assay on HT-29; 22.4 µM (inactive) with SK-MEL-28; 32.1 µM (inactive) with A498; 3.78 µM (inactive) in the assay with RPMI-8226. The GI50 in the assay with SNB-19 is 24 µM (inactive); with CCRF-CEM it was 9.2 µM (inactive); in the assay on T47D, 28.4 µM (inactive); in the assay on COLO 205, 17 µM (inactive); in the assay on K562 it was 24.5 µM (inactive); in the assay on MOLT-4, 13.3 µM (inactive). The GI50 with SF-295 was > 100 µM (inactive); in the assay with CAKI-1 it was 27.9 µM (inactive); with OVCAR-4 it was 18.9 µM (inactive); in the assay with PC-3, 18.7 µM (inactive).

Take `O=P1(N2CCOCC2)OCCO1`: the GI50 in the assay on MDA-MB-435, in the assay on HT-29, in the assay on SK-MEL-28, in the assay with SR, in the assay with A498 and in the assay with NCI-H522 was > 100 µM (inactive) each time. The GI50 with RPMI-8226, in the assay with SNB-19, with CCRF-CEM, with COLO 205, in the assay on K562 and in the assay with MOLT-4 was > 100 µM (inactive) each time. In addition, the GI50 in the assay with SF-295, in the assay on CAKI-1, with OVCAR-4 and with PC-3 was > 100 µM (inactive) in each case.

Take `COC(=O)c1ccc(NCC2=C(Br)C(=O)C=CC2=O)cc1Cl`: the GI50 with SNB-75 is 42.5 µM (inactive); in the assay with MDA-MB-435, 19.2 µM (inactive); in the assay with HT-29, 17.7 µM (inactive); with SK-MEL-28, 18.8 µM (inactive); in the assay on A498, > 100 µM (inactive); in the assay on NCI-H522 it was 6.43 µM (inactive). For the same compound, the GI50 is 40.3 µM (inactive) in the assay with RPMI-8226; > 100 µM (inactive) with SNB-19; > 100 µM (inactive) in the assay with CCRF-CEM; 20 µM (inactive) in the assay on T47D; 17.8 µM (inactive) in the assay on COLO 205; 3.54 µM (inactive) in the assay with K562. The GI50 with MOLT-4 is 17.7 µM (inactive); with SF-295 it was 40.1 µM (inactive); in the assay on CAKI-1, 26.9 µM (inactive); in the assay on OVCAR-4 it was 24.4 µM (inactive); in the assay with PC-3 it was 20 µM (inactive).

As to `COC(=O)C1=C(O)C(C(=O)OC)[C@]2(O)[C@@H](C(=O)OC)[C@H]1C[C@@H](c1ccccc1)[C@@H]2C(=O)OC` (stereo partly drawn), the GI50 with SNB-75 is 16.9 µM (inactive); in the assay on MDA-MB-435, 7.71 µM (inactive); in the assay on HT-29, 16.3 µM (inactive); in the assay on SK-MEL-28 it was 20.9 µM (inactive); with SR it was 4.17 µM (inactive); with A498 it was 17.2 µM (inactive). Moreover, the GI50 was 6.71 µM (inactive) with NCI-H522; 9.73 µM (inactive) with RPMI-8226; 24.3 µM (inactive) in the assay with SNB-19; 5.42 µM (inactive) with CCRF-CEM; 27.6 µM (inactive) in the assay with T47D; 5.61 µM (inactive) in the assay on K562. Moreover, the GI50 in the assay on MOLT-4 is 11.6 µM (inactive).

For `COP(=O)(OC)C(Cc1cn(C(C)=O)c2ccccc12)C(=O)O` (stereo not drawn), the GI50 in the assay with SNB-75, with HT-29, in the assay on SK-MEL-28, in the assay on SR, with A498 and in the assay on NCI-H522 was > 100 µM (inactive) each time. The GI50 in the assay with RPMI-8226, in the assay with SNB-19, in the assay on CCRF-CEM, with T47D, in the assay with COLO 205 and with K562 was > 100 µM (inactive) in each case. The GI50 with MOLT-4, in the assay on SF-295, in the assay on CAKI-1, in the assay with OVCAR-4 and with PC-3 was > 100 µM (inactive) each time.
